# What was measured:
# SHP2-E76K = biological target: T1, SHP2-E76K (Homo sapiens, UniProt Q06124, E76K); experiment: Michaelis–Menten kinetics and mode of inhibition; type: biochemical
# T1 construct: Recombinant human full-length SHP2 (1–594) WT and E76K mutants; made in house
# T1 sequence (Q06124 1-593 E76K): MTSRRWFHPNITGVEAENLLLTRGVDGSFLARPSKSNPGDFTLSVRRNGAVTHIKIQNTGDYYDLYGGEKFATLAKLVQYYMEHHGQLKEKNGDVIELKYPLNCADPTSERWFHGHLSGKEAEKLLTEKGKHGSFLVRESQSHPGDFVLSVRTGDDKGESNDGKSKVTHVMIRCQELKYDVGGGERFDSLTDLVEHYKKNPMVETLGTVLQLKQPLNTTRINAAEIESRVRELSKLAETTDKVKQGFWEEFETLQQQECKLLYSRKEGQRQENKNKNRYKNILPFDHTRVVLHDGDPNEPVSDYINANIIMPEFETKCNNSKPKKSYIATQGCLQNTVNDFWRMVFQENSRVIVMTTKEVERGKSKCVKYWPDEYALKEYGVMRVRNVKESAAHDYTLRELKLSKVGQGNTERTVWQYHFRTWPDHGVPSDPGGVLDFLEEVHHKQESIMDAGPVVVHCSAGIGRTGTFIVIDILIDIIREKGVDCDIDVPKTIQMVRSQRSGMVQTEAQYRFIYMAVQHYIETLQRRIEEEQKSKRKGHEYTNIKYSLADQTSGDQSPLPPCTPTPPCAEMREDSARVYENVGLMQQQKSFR
# Source text: We previously reported furanylsalicylic acids as potent and selective inhibitors of the Yersinia tyrosine phosphatase YopH ([37], [38]). […] Thus, we tested whether replacement of the neutral 2-hydroxybenzamide moiety with the negatively charged salicylate would be beneficial for the potency of this scaffold against SHP2. […] To corroborate this postulate, we subjected SBI-4668 to Michaelis–Menten kinetic studies with SHP2-E76K to determine its mode of inhibition (Fig. 3, A and B). Using nonlinear regression, initial rates at various inhibitor and substrate concentrations were fitted to the Michaelis–Menten equations for competitive, noncompetitive, uncompetitive, and mixed inhibitions. Fitting models were then compared using Akaike's Information Criterion (AIC), and inhibition mode probabilities were calculated from the differences between the corresponding second-order corrected AIC scores as previously described ([38], [39]).
# SBI-4668 was tested with SHP2-E76K using a similar assay format as described previously. SBI-4668 or vehicle (DMSO) was spotted in triplicate into a black Greiner FLUOTRAC 200 384-well microplate (catalog no.: #781076; Greiner) using an Echo 555 Liquid Handler (Labcyte, Inc). […] Fluorescence intensity was measured in kinetic mode as described previously. The initial rates were determined from the linear progression curves of each SHP2-E76K reaction. […]
# [1] = system: patient-derived AML cells; experiment: Viability of patient-derived AML cells; type: cell-based, human; conditions: 10 μM; 2, 4 or 6 days in culture
# Source text: Because SHP2 activity is critical for ERK activation, we used phospho-ERK1/2 (p-ERK1/2) as a more direct readout of SHP2 inhibitor efficacy. […] This p-ERK rebound in MOLM-13 cells treated with RMC-4550 is reminiscent of previously reported data from human hepatoma Hep3B cells treated with SHP099 ([34]). We also tested the effects of SBI-4668 or RMC-4550 on two patient-derived AML samples (Fig. 4F).
# Patient-derived AML cells were obtained from Carol Burian and Dr James Mason (Scripps MD Anderson Center) under approved Institutional Review Board protocol 13-6180. […] Final peripheral blood mononuclear cells were resuspended in Bambanker serum-free freezing medium (Wako Pure Chemical Industries, Ltd) and stored frozen before cell viability was assessed as described later.
# Viability of AML and esophageal carcinoma cells was assessed using the ATP-depletion assay CellTiter-Glo (Promega). Cells were harvested at 1 × 10^6/ml to 2 × 10^6 cells/ml with cell numbers determined by trypan blue using the Countess Cell counter (Thermo Scientific) and resuspended in culture media. […] Luminescence was read on a Tecan Spark Multimode Microplate Reader, and data were analyzed using GraphPad Prism software.
# [2] = system: mutant SHP2 (E76K) in live cells; design: method as in PMID 31953320, PMID 32744526; conditions: cellular thermal shift assay; cited from earlier work
compound,measurement,setting,value
"O=C(Nc1ccccc1)c1cc(-c2ccc(/C=C3\Sc4ccccc4C3=O)o2)ccc1O [SBI-4668, (Z)-2-Hydroxy-5-(5-((3-oxobenzo[b]thiophen-2(3H)-ylidene)methyl)furan-2-yl)-N-phenylbenzamide]",mode of inhibition,SHP2-E76K; AIC model comparison,either a noncompetitive or a mixed inhibition mechanism
same,Ki,"SHP2-E76K; DiFMUP, read-out: inhibition constant (Ki) for noncompetitive inhibition",1800 nM
same,growth of two patient-derived AML samples,[1],inhibited the growth of both AML patient samples
same,cellular target engagement with mutant SHP2,[2],direct target engagement
